Experimental data taken from the NIST ThermoML archive (doi:10.1016/j.jct.2014.09.020).

Test: xn = mol fraction of the nth substance listed
Details: Liquid; for speed of sound: Frequency=4 MHz, Single path-length method; for mass density: Vibrating tube method

c1ccc2c(c1)CCCC2 [1,2,3,4-tetrahydronaphthalene] + CCCCCCCCCC
Details | mass density, 100 kPa [kg/m3] | speed of sound, 100 kPa [m/s] | speed of sound, 5000 kPa [m/s] | speed of sound, 10000 kPa [m/s] | speed of sound, 15000 kPa [m/s] | speed of sound, 20000 kPa [m/s] | speed of sound, 25000 kPa [m/s]
313.15 K, x2 = 0 | 952.93 | 1413 | 1434 | 1455 | 1475 | 1495 | 1513
313.15 K, x2 = 0.2501 | 877.12 | 1331 | 1356 | 1380 | 1402 | 1424 | 1445
313.15 K, x2 = 0.5005 | 813.93 | 1265 | 1293 | 1319 | 1346 | 1370 | 1394
313.15 K, x2 = 0.7502 | 760.5 | 1214 | 1244 | 1273 | 1302 | 1329 | 1354
323.15 K, x2 = 0 | 944.99 | 1374 | 1397 | 1419 | 1439 | 1459 | 1480
323.15 K, x2 = 0.2501 | 869.27 | 1291 | 1317 | 1342 | 1365 | 1389 | 1411
323.15 K, x2 = 0.5005 | 806.15 | 1228 | 1255 | 1283 | 1310 | 1336 | 1361
323.15 K, x2 = 0.7502 | 752.77 | 1175 | 1207 | 1238 | 1268 | 1296 | 1321
333.15 K, x2 = 0 | 937.04 | 1335 | 1359 | 1383 | 1402 | 1425 | 1445
333.15 K, x2 = 0.2501 | 861.39 | 1254 | 1281 | 1306 | 1331 | 1356 | 1379
333.15 K, x2 = 0.5005 | 798.33 | 1189 | 1220 | 1249 | 1276 | 1302 | 1327
333.15 K, x2 = 0.7502 | 744.98 | 1137 | 1174 | 1204 | 1234 | 1263 | 1292
